Patent US4290952A, “Aryl-1-mercaptoalkanoylproline and homoproline derivatives” (American Home Products Corporation, priority 1980, dated 1981)

Tests used:
[1] = test system: male spontaneously hypertensive rats; assay: Blood pressure lowering in spontaneously hypertensive rats (systolic pressure, caudal plethysmograph); format: in vivo, rat
Description: In addition, the blood pressure lowering ability of the compounds of this invention was established by measuring the systolic pressure of male spontaneously hypertensive rats with a Decker Caudal Plethysmograph. The compounds tested were administered orally and blood pressure was read prior to and at 1.5, 4 and 24 hours after drug administration.

[2] = test system: angiotensin converting enzyme; assay: In vivo inhibition of angiotensin converting enzyme: blood pressure responses to i.v. angiotensin I in conscious normotensive rat after oral dosing; conditions: 10 mg/kg, 10 minutes post dosing, mean two animals
Description: The in vitro experiments were confirmed following the procedure of Rubin et al, J. Pharmacol. Exp. Ther 204 721 (1978) whereby jugular vein and carotid artery cannulae are placed in an ether anesthetized, normotensive,male, Spraque-Dawley rat for injection of compounds and direct recording of systemic arterial pressure, respectively. The blood pressure responses in the conscious animal to i.v. injections of angiotensin I (300 ng/kg), angiotensin II (100 ng/kg) and bradykinin (10 μg/kg) are recorded and compared with identical doses administered at various time intervals after oral dosing of the angiotensin converting enzyme inhibitor of this invention.

[3] = target: T1, angiotensin converting enzyme (Oryctolagus cuniculus, UniProt P12822); assay: Inhibition of hippuryl-L-histidyl-L-leucine hydrolysis by angiotensin converting enzyme, in vitro; format: biochemical, rabbit
T1 construct: A crude angiotensin converting enzyme supernatant is obtained by blending 1 gm. of rabbit lung acetone powder; tissue Pel-Freez Biologicals; host or cells: rabbit lung (acetone powder; crude 40,000 xg supernatant)
T1 sequence (P12822 34-1310): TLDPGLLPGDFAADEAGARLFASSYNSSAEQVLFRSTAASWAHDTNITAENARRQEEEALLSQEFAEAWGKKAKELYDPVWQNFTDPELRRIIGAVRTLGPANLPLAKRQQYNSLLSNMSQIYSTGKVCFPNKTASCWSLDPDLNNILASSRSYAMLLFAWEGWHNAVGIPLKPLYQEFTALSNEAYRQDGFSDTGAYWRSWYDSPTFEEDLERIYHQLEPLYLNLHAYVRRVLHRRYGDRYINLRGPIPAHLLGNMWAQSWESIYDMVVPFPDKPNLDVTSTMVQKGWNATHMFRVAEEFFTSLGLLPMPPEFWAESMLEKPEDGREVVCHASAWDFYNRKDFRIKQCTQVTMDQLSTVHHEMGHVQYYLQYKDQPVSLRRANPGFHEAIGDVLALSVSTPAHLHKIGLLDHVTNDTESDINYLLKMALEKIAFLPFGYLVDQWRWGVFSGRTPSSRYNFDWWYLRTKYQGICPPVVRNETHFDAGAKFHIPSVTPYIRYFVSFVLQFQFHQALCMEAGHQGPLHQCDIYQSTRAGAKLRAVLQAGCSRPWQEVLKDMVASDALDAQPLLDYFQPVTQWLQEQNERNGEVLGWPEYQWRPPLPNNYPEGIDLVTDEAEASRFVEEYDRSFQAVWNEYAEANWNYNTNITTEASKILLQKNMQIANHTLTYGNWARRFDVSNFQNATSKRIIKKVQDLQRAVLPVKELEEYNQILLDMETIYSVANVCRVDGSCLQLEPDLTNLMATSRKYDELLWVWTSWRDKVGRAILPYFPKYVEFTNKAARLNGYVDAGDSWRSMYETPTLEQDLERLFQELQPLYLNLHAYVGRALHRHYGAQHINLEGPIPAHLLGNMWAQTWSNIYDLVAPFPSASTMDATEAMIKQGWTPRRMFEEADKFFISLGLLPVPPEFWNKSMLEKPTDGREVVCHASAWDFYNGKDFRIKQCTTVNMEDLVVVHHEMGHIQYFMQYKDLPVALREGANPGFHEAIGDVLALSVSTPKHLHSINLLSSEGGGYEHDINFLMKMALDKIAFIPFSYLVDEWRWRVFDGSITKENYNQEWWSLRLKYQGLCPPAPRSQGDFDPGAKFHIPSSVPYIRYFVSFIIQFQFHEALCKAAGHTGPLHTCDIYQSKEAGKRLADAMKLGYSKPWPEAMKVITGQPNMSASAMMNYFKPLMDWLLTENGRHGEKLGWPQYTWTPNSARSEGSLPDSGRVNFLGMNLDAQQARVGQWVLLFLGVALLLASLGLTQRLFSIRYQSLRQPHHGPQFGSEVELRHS
Description: The activity of the compounds of this invention was established by incubation of hippuryl-L-histidyl-L-leucine at 37° C. with angiotensin converting enzyme by the following procedure:
A crude angiotensin converting enzyme supernatant is obtained by blending 1 gm. of rabbit lung acetone powder (Pel-Freez Biologicals) with 35 ml of 50 mM (buffered) potassium phosphate, pH 8.3 and centrifuging for 45 min. at 40,000 xg.
The specific angiotensin converting enzyme substrate Hippuryl-L-histidyl-L-leucine (HHL--Sigma Chem. Co.) is prepared at 5 mM in 200 mM potassium phosphate buffer containing 757 mM NaCl at pH 8.3.
Incubation for the assay of HHL hydrolysis by angiotensin converting enzyme is carried out in a 37° C. gyrorotary incubator in disposable 13×100 mm tubes. Each 0.25 ml assay mixture contains the following components at the final concentrations: potassium phosphate buffer, 100 mM; NaCl, 300 mM; HHL, 5 mM; and enzyme 0.15 ml (10 mU approx.) added last to initiate the reaction. Zero time controls have 0.25 ml of 2 N HCl added before the enzyme. The timed reactions are terminated with acid at 30 min. similarly and the hippuric acid freed from substrate is extracted into 1.5 ml of ethylacetate by vortex mixing for 15 sec. After 5 min. centrifugation in a clinical centrifuge, a 1.0 ml aliquot of the ethyl acetate layer is transferred to a clean tube. These aliquots are evaporated to dryness by heating (120° C.) in a Temp-Block module heater.
The hippuric acid is resuspended in 1.0 ml of water, the absorbance at 228 nm is determined, and the amount present is calculated from a standard curve. The amount of hippuric acid×1.1 (extraction coefficient)×1.5 (ratio of volumes)×1 μM hippuric acid/[…]×1/30 min.=nM hippuric acid released/min. Enzyme activity in the presence of an inhibitor is compared with control activity, and reported as a percentage inhibition. (Cushman, D. W. and Cheung, H. S., Biochem. Pharmacol. 20 1637 (1971).

inhibition at 0.1 µg/mL ([3]; 100 ng/ml) [%] | inhibition of angiotensin converting enzyme in vitro ([3]; 100 ng/ml) [%] | inhibition of angiotensin converting enzyme in vitro ([3]; 1000 ng/ml) [%] | inhibition at 0.001 µg/mL ([3]; 1 ng/ml) [%] | inhibition at 0.01 µg/mL ([3]; 10 ng/ml) [%] | inhibition at 0.05 µg/mL ([3]; 50 ng/ml) [%] | Structure (SMILES) | reduction of systolic blood pressure in spontaneously hypertensive rats ([1]; 50 mg/kg oral dose, four hours after administration) [millimeters] | inhibition in vivo [2] [%] | reduction of systolic blood pressure in spontaneously hypertensive rats ([1]; 50 mg/kg orally administered) [mmHg] | reduction of blood pressure in the rat ([1]; 10 mg/kg, oral) [mmHg]
72 |  |  |  |  |  | O=C(O)[C@@H]1CC[C@H](c2ccccc2)N1C(=O)CCS (relative stereo) [Example four, cis-1-(3-Mercaptopropanoyl)-5-phenyl proline] | 21 | 65 |  | 
40 |  |  |  |  |  | COc1ccc([C@H]2CC[C@@H](C(=O)O)N2C(=O)CCS)cc1OC (relative stereo) [Example two, cis-1-(3-Mercaptopropanoyl)-5-(3,4-Dimethoxyphenyl)proline] |  | 72 | 23 | 
 | 3 | 17 |  |  |  | CC(CSC(=O)c1ccccc1)C(=O)N1[C@@H](c2ccccc2)CC[C@H]1C(=O)O (single isomer, unassigned) [α-acid of Example 7, 5-Phenyl-1-(3-benzoylthio-2-methyl-1-oxopropyl)proline] |  |  |  | 
 | 84 | 99 | 20 | 40 | 75 | CC(CSC(=O)c1ccccc1)C(=O)N1[C@@H](c2ccccc2)CC[C@H]1C(=O)O (single isomer, unassigned) [β-acid of Example 7, 5-Phenyl-1-(3-benzoylthio-2-methyl-1-oxopropyl)proline] |  |  |  | 37
